Results from the supplement of paper PMC11208160.

Test: recombinant barcode read abundance after kanamycin selection (control-corrected) (log10(CPM+1)); higher = more efficient recombination; sequences stand for … in AGTGCAGAGAAAATCGGCCAGTTTTCTCTGCCTGCAGTCCGCATGCCGT…AGATTTATGCAGCGGACTGCCTTTCTCCCAAAGTGATAAACCGGACAGTATCATGGACCGGTTTTCCCGGTAATCCGTATTTGCAAGGTTGGTTTCACT; site = the 11-nt target
In short: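 A promoter, a target, a barcode and the first 104 bridge RNA bases under J23119 made up each oligo. Oligos were Gibson-cloned into a vector bearing the other 73 bp and a T7-inducible recombinase, then co-electroporated into E. coli with a donor plasmid and plated in duplicate on chloramphenicol/ampicillin LB agar (control) or chloramphenicol/ampicillin/kanamycin with 0.1 mM IPTG. Recombination efficiency is the averaged, control-corrected counts per million of recombinant-junction barcodes. Reported values are log10(CPM+1).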
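Also: IS621 recombinase and bridge RNA in Escherichia coli cells.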

Sequence | recombinant barcode read abundance (log10)
CTCTAGACTTGGGTTCTAACCTGTTGCGT (site CTCTAGACTAC) | 2.01
CTCTAGACTTGGGTTCTAACCTGTTGCGT (site CTTTAGACTAT) | 0.211
CTCTATTCTTGGGTTCTAACCTGTTGCAT (site CTCAATTCTAT) | 0.262
CTCTATTCTTGGGTTCTAACCTGTTGCAT (site CTCCATTCTAT) | 0.16
CTCTATTCTTGGGTTCTAACCTGTTGCAT (site CTCGATTCTAT) | 0.161
CTCTATTCTTGGGTTCTAACCTGTTGCAT (site CTCTATTCTAT) | 0.242
CTCTCATCTTGGGTTCTAACCTGTTGCTT (site CTCTCATCTAA) | 0.0308
CTCTCATCTTGGGTTCTAACCTGTTGCTT (site CTCTCATCTAG) | 0.232
CTCTCGCCTTGGGTTCTAACCTGTTGCCT (site CTATCGCCTAG) | 0
CTCTCGCCTTGGGTTCTAACCTGTTGCCT (site CTCTCGCCTAG) | 0.168
CTCTCGCCTTGGGTTCTAACCTGTTGCCT (site CTGTCGCCTAG) | 0.0587
CTCTCGCCTTGGGTTCTAACCTGTTGCCT (site CTTTCGCCTAG) | 0.0266
CTCTCGGCTTGGGTTCTAACCTGTTGCCT (site CTCTAGGCTAG) | 0.494
CTCTCGGCTTGGGTTCTAACCTGTTGCCT (site CTCTCGGCTAG) | 0.865
CTCTCGGCTTGGGTTCTAACCTGTTGCCT (site CTCTGGGCTAG) | 0.138
CTCTCGGCTTGGGTTCTAACCTGTTGCCT (site CTCTTGGCTAG) | 0.0157
CTCTGCTCTTGGGTTCTAACCTGTTGCTC (site CTCTGCTCTGA) | 0.724
CTCTGCTCTTGGGTTCTAACCTGTTGCTC (site GCTGAGGCTTG) | 0
CTCTGTCCTTGGGTTCTAACCTGTTGCTA (site CTCTGTCCTTA) | 0.346
CTCTGTCCTTGGGTTCTAACCTGTTGCTA (site CTCTGTCCTTG) | 0.0487
CTCTTAACTTGGGTTCTAACCTGTTGCTA (site CTCTTAACTTA) | 0.128
CTCTTAACTTGGGTTCTAACCTGTTGCTA (site CTCTTAGCTTT) | 0.134

Sequence | recombinant barcode read abundance (log10)
CTCTTGACTTGGGTTCTAACCTGTTGCTT (site CTCTGGACTAA) | 0.0764
CTCTTGACTTGGGTTCTAACCTGTTGCTT (site CTCTTGACTAA) | 0.871
CTGAGCCCTTGGGTTCTAACCTGTTGCCG (site CTAAGCCCTCC) | 0.239
CTGAGCCCTTGGGTTCTAACCTGTTGCCG (site CTGAGCCCTCG) | 1.08
CTGAGGCCTTGGGTTCTAACCTGTTGCCT (site ATGAGGCCTAG) | 0.226
CTGAGGCCTTGGGTTCTAACCTGTTGCCT (site CTGAGGCCTAG) | 0.497
CTGAGGCCTTGGGTTCTAACCTGTTGCCT (site GTGAGGCCTAG) | 0.11
CTGAGGCCTTGGGTTCTAACCTGTTGCCT (site TTGAGGCCTAG) | 0.299
CTGATAACTTGGGTTCTAACCTGTTGCCT (site CTGATAACTAG) | 1.02
CTGATAACTTGGGTTCTAACCTGTTGCCT (site CTGATCACTAG) | 0.279
CTGATAACTTGGGTTCTAACCTGTTGCCT (site CTGATGACTAG) | 0.0814
CTGATAACTTGGGTTCTAACCTGTTGCCT (site CTGATTACTAG) | 0.136
CTGCCCGCTTGGGTTCTAACCTGTTGCCT (site CTGCCCGCTAG) | 0.667
CTGCCCGCTTGGGTTCTAACCTGTTGCCT (site GTGCTCGCTAG) | 0.366
CTGCCCTCTTGGGTTCTAACCTGTTGCCT (site CAGCCCTCTAG) | 0.932
CTGCCCTCTTGGGTTCTAACCTGTTGCCT (site CCGCCCTCTAG) | 0.179
CTGCCCTCTTGGGTTCTAACCTGTTGCCT (site CGGCCCTCTAG) | 0.0113
CTGCCCTCTTGGGTTCTAACCTGTTGCCT (site CTGCCCTCTAG) | 1.74
CTGCGCTCTTGGGTTCTAACCTGTTGCAT (site CTGCGCTCTAT) | 1.22
CTGCGCTCTTGGGTTCTAACCTGTTGCAT (site TGTGAGCCTTC) | 0.0268
CTGCGGTCTTGGGTTCTAACCTGTTGCAT (site ATGCGGTCTAG) | 0.138
CTGCGGTCTTGGGTTCTAACCTGTTGCAT (site CTGCGGTCTAT) | 1.7

Sequence | recombinant barcode read abundance (log10)
CTGCGTACTTGGGTTCTAACCTGTTGCCG (site CTGCGTACTCG) | 0.365
CTGCGTACTTGGGTTCTAACCTGTTGCCG (site TCCAAGGCTTA) | 0.0663
CTGCGTCCTTGGGTTCTAACCTGTTGCCT (site CTCCGTCCTAG) | 0.121
CTGCGTCCTTGGGTTCTAACCTGTTGCCT (site CTGCGTCCTAG) | 0.671
CTGGAAACTTGGGTTCTAACCTGTTGCCT (site CGGGTAACTAG) | 0.0164
CTGGAAACTTGGGTTCTAACCTGTTGCCT (site CTGGAAACTAG) | 1.23
CTGGACACTTGGGTTCTAACCTGTTGCCT (site CTAGACACTAG) | 1.94
CTGGACACTTGGGTTCTAACCTGTTGCCT (site CTCGACACTAG) | 0.0566
CTGGACACTTGGGTTCTAACCTGTTGCCT (site CTGGACACTAG) | 1.83
CTGGACACTTGGGTTCTAACCTGTTGCCT (site CTTGACACTAG) | 0.329
CTGGGCACTTGGGTTCTAACCTGTTGCCT (site CGGGGCACTAG) | 0.164
CTGGGCACTTGGGTTCTAACCTGTTGCCT (site CTGGGCACTAG) | 0.395
CTGGGCCCTTGGGTTCTAACCTGTTGCCT (site CTGAGCCCTAG) | 0.12
CTGGGCCCTTGGGTTCTAACCTGTTGCCT (site CTGCGCCCTAG) | 0.0544
CTGGGCCCTTGGGTTCTAACCTGTTGCCT (site CTGGGCCCTAG) | 0.277
CTGGGCCCTTGGGTTCTAACCTGTTGCCT (site CTGTGCCCTAG) | 0.214
CTGGGTCCTTGGGTTCTAACCTGTTGCTT (site CTGGGTCCTAA) | 1.48
CTGGGTCCTTGGGTTCTAACCTGTTGCTT (site CTTGGTTCTAA) | 0.179
CTGGTTCCTTGGGTTCTAACCTGTTGCCT (site CTGGCTCCTAA) | 0.874
CTGGTTCCTTGGGTTCTAACCTGTTGCCT (site CTGGTTCCTAG) | 1.2
CTGTTGTCTTGGGTTCTAACCTGTTGCCA (site CTGATGTCTTG) | 0.204
CTGTTGTCTTGGGTTCTAACCTGTTGCCA (site CTGCTGTCTTG) | 0.00714

Sequence | recombinant barcode read abundance (log10)
CTGTTGTCTTGGGTTCTAACCTGTTGCCA (site CTGGTGTCTTG) | 0.0643
CTGTTGTCTTGGGTTCTAACCTGTTGCCA (site CTGTTGTCTTG) | 0.487
CTTACAGCTTGGGTTCTAACCTGTTGCCT (site CTTACAGCTAG) | 0.644
CTTACAGCTTGGGTTCTAACCTGTTGCCT (site CTTACCGCTAG) | 0.138
CTTACAGCTTGGGTTCTAACCTGTTGCCT (site CTTACGGCTAG) | 0.0141
CTTACAGCTTGGGTTCTAACCTGTTGCCT (site CTTACTGCTAG) | 0.147
CTTAGGACTTGGGTTCTAACCTGTTGCCA (site CTTAGGACTAG) | 0.257
CTTAGGACTTGGGTTCTAACCTGTTGCCA (site CTTAGGACTCG) | 0.0285
CTTAGGACTTGGGTTCTAACCTGTTGCCA (site CTTAGGACTGG) | 0.0906
CTTAGGACTTGGGTTCTAACCTGTTGCCA (site CTTAGGACTTG) | 0.265
CTTAGGACTTGGGTTCTAACCTGTTGCCG (site CTTAGGACTAG) | 0.235
CTTAGGACTTGGGTTCTAACCTGTTGCCG (site CTTAGGACTCG) | 0.577
CTTAGGACTTGGGTTCTAACCTGTTGCCG (site CTTAGGACTGG) | 0.155
CTTAGGACTTGGGTTCTAACCTGTTGCCG (site CTTAGGACTTG) | 0.199
CTTAGTACTTGGGTTCTAACCTGTTGCAT (site CTTAGTACTAT) | 0.246
CTTAGTACTTGGGTTCTAACCTGTTGCAT (site GACGTGCCTCG) | 0.432
CTTCAATCTTGGGTTCTAACCTGTTGCCT (site CTTAAATCTAG) | 0.146
CTTCAATCTTGGGTTCTAACCTGTTGCCT (site CTTCAATCTAG) | 0.267
CTTCAATCTTGGGTTCTAACCTGTTGCCT (site CTTGAATCTAG) | 0.35
CTTCAATCTTGGGTTCTAACCTGTTGCCT (site CTTTAATCTAG) | 0.0762
